How the values were obtained:
[1] = test system: cat fleas (Ctenocephalides felis), NC Fleas; test: In vivo cat flea contact assay, NC fleas; conditions: contact with treated filter disk in vial, about 24-30 hours; mM = concentration of the DMSO solution, about 1 μL applied
Method: (§1) This example describes an in vivo assay to screen compounds for their ability to kill cat fleas via contact.
(§2) Test compounds were dissolved in dimethylsulfoxide (DMSO) at concentrations ranging from about 0.05 mM to about 100 mM. About 1 μL of dissolved test compound was dispensed onto a 6 mm (diameter) GF/C filter disk (filter material available from Whatman Inc., Clifton, N.J.) in the bottom of a 4 mL screw-top glass vial and allowed to air dry 24-48 hours. Positive control vials were prepared in the same manner except that no test compounds were dissolved in the DMSO. About 20 newly emerged cat fleas (Ctenocephalides felis) were sedated by refrigeration at 0-4° C. and transferred to each vial. Each vial was sealed with a thin, perforated Teflon™ septum secured by an open top screw cap and held vertically in the dark. After about 24-30 hours, the healthy, moribund, and dead cat fleas in each vial were counted. The percentage of dead cat fleas in each vial was then calculated using the formula M=100(D−(FC/100))/(F−(FC/100)), in which M is the percentage of dead cat fleas due to the addition of the test compound, D is the number of dead cat fleas in the test vial, F is the total number of cat fleas in the test vial, and C is the percentage of dead cat fleas in the control vials.

[2] = test system: houseflies (Musca domestica); test: In vivo housefly contact assay; conditions: contact in coated glass test tube, about 24 hours; mM = concentration of the DMSO solution, about 1 μL applied
Method: This example describes an in vivo assay to screen compounds for their ability to kill houseflies via contact. Newly emerged houseflies (Musca domestica, available from Rincon-Vitova Insectaries, Inc., Ventura, Calif.) were sedated with carbon dioxide gas, collected in 50 mL polypropylene conical tubes containing filter paper saturated with 10% (w/w) sucrose in water, and allowed to feed at room temperature for about 2-4 hours. Test compounds were dissolved as in dimethylsulfoxide (DMSO) at concentrations ranging from about 0.05 mM to about 100 mM. About 1 μL of dissolved test compound and about 100 μL of isopropanol were dispensed into the bottom of a 9 mL screw-top glass test tube. Positive control test tubes were prepared in the same manner except that no test compounds were dissolved in the DMSO. Each test tube was rolled to coat the sides with the chemical solution, and allowed to air dry 24-48 hours. About 20 houseflies were sedated by refrigeration at 0-4° C. and transferred to each test tube. Each test tube was sealed with organdy cloth secured by an open top screw cap and laid horizontally in the dark. After about 24 hours, the healthy, moribund, and dead houseflies in each test tube were counted. The percentage of dead houseflies in each test tube was then calculated using the formula M=100(D−(FC/100))/(F−(FC/100)), in which M is the percentage of dead houseflies due to the addition of the test compound, D is the number of dead houseflies in the test tube, F is the total number of houseflies in the test tube, and C is the percentage of dead houseflies in the control test tubes.

[3] = test system: cat fleas (Ctenocephalides felis), CO Fleas; test: In vivo cat flea contact assay, CO fleas; conditions: Ctenocephalides felis, topical; contact with treated filter disk in vial, about 24-30 hours; mM = concentration of the DMSO solution, about 1 μL applied; read-out: LD50 (mM), CO Fleas
Method: as §1, §2

Housefly GABA receptors = target: T1, Housefly GABA receptors (Musca domestica, UniProt Q75NA5); test: In vitro assay of binding to housefly GABA receptors (3H-EBOB displacement, housefly neuronal membranes); conditions: housefly neuronal membranes
T1 sequence (Q75NA5 30-576): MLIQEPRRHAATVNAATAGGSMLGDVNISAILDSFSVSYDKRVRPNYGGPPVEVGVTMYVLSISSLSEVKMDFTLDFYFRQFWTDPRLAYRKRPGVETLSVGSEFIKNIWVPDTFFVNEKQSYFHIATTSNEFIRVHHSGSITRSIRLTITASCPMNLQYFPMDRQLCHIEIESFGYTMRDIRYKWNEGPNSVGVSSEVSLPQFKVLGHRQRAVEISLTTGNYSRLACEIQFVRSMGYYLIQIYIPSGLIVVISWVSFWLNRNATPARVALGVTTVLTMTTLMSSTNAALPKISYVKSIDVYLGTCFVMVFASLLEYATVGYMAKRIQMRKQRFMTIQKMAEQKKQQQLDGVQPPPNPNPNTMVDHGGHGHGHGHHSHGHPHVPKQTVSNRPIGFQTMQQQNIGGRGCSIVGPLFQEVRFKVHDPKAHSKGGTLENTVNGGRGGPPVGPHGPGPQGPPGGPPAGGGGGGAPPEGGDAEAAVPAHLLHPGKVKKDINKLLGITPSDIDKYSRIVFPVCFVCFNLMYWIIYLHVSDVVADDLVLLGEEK
Method: Newly emerged houseflies (Musca domestica, available from Rincon-Vitova Insectaries, Inc., Ventura, Calif.) were sedated with carbon dioxide gas, collected in 50 mL polypropylene conical tubes, and immediately frozen by submersion in liquid nitrogen. Unless specified, all of the following work was performed at 0-4° C. After removal from liquid nitrogen, the tubes of frozen houseflies were shaken vigorously by hand to decapitate the houseflies. […] Contaminating wings were removed by holding a vacuum nozzle approximately 4 cm above the heads, and contaminating legs were separated from the heads by passage through a #15 mesh screen. All remaining debris were removed from the pool of heads using forceps. The purified heads were collected in 50 mL polypropylene conical tubes and stored in liquid nitrogen until processed further.
About 13 g of purified housefly heads were suspended in about 65 mL of 10% sucrose buffer (10% sucrose (w/w) in 10 mM Tris, pH 7.5). The heads were homogenized for about 1 minute, using a Tissumizer™ homogenizer equipped with a SDT-100EN probe (available from Tekmar-Dohrmann, Cincinnati, Ohio) running at 70% of its maximum speed. The extract was further homogenized by about 5 passes through a 40 mL Dounce tissue grinder. The extract was then centrifuged at about 500×g for about 5 minutes to pellet large debris. The supernatant was collected; the pellet was washed with an additional 65 mL of 10% sucrose buffer and centrifuged at 500×g for about 5 minutes. The second supernatant was collected and combined with the first supernatant, and the pool was filtered through a 100μ CellMicroSieve™ mesh to remove residual debris (available from BioDesign of New York, Carmel, N.Y.).
Neuronal membranes containing active GABA receptors were collected via sucrose density centrifugation by the following method. About 8 mL of 35% sucrose buffer (35% sucrose (w/w) in 10 mM Tris, pH 7.5), were dispensed into each of six 38 mL ultracentrifuge tubes. These layers were overlaid with about 8 mL of 20% sucrose buffer (20% sucrose (w/w) in 10 mM Tris, pH 7.5), and finally overlaid with about 20 mL of filtered extract supernatant. The tubes were centrifuged at about 120,000×g for about 100 min at 4° C. After centrifugation, the 10% sucrose layer and most of the 20% sucrose layer were removed by aspiration. The membranes at the interface of the 20% sucrose and 35% sucrose layers were collected, pooled, diluted with 10% sucrose buffer, and centrifuged at about 120,000×g for about 40 min at 4° C. After centrifugation, the supernatant was discarded, and the pellets resuspended in about 6.5 mL of assay buffer (10 mM phosphate, 300 mM NaCl, pH 7.5) using a 10 mL Potter-Elvehjem tissue grinder with a Teflon® pestle. Protein concentration was determined by the Bio-Rad Protein Assay (available from Bio-Rad Laboratories, Hercules, Calif.) using bovine serum albumin as a standard. The membranes were aliquoted and stored in liquid nitrogen for up to 2 months before use.
Housefly neuronal membranes were prepared as described above from housefly heads. Test compounds were dissolved in dimethylsulfoxide (DMSO) at concentrations ranging from about 2 nM to about 100 mM. About 1 μL of a dissolved test compound was dispensed into a well of a 96-well polystyrene plate. About 100 μL of ice cold assay buffer (10 mM phosphate, 300 mM NaCl, pH 7.5) containing 5.2 nM 4′-Ethynyl-4-n-[2,3-^3H2]propylbicycloorthobenzoate (^3H-EBOB, 38 Ci/mmol, available from NEN Life Science Products, Boston, Mass.) was added to the well, followed by about 100 μL of ice cold assay buffer containing about 0.5-1.0 mg/mL housefly neuronal membranes. Control wells were prepared the same way except that the housefly neuronal membranes were omitted from the “negative” wells, and the test compounds were omitted from the “positive” wells. […]

Structure (SMILES): CC1(C)CCc2nn(-c3c(Cl)cc(C(F)(F)F)cc3Cl)cc21 [Compound 38, 2-[2,6-Dichloro-4-(trifluoromethyl)phenyl]-4,4-dimethyl-2,4,5,6-tetrahydrocyclopenta[c]pyrazole]
- LD50 (mM), NC Fleas [1]: 15 mM
- LD50 (mM), Flies [2]: >100 mM
- LC50 [3]: 54 mM
- Compounds with the most activity (housefly 3H-EBOB binding) (Housefly GABA receptors): most activity
